Experimental data: patent US20150284347A1, “NEW BENZENE SULFONAMIDE THIAZOLE COMPOUNDS” (INSERM (INSTITUT NATIONAL DE LA SANTÉ ET DE LA RECHERCHE …, priority 2012, published 2015)

Assays:
[1] = system: melanoma cells resistant to dabrafenib; assay: Trypan blue cell viability, melanoma cells resistant to dabrafenib; assay type: cell-based, human; settings: patient melanoma cells resistant to dabrafenib, FIG. 5
Method: The measure of cell viability was performed in the same way as for FIG. 1. Results are expressed as percentage of cells alive relatively to the number of living cells in the presence of DMSO, which is a negative control
Cells were seeded in 6-well plates (60000 cells/well), depleted and incubated with compounds for the times indicated. Then cells were detached in the presence of 2000 of HyQTase (Thermo) and 2 ml of RPMI 1640 Glutamax (Gibco) was added to the cell solution. 100 of this solution was stained for 1 minute with 100 of 0.4% trypan blue before counting with a Malassez chamber.
Melanoma cells resistant to dabrafenib wee prepared from patients treated and presented a resistance to dabrafenib. dabrafenib, [HA15], [SR47] and [SR50] were tested on these resistant cells, in order to determine their activity on cell viability of resistant melanoma cells, as illustrated in FIG. 5.

[2] = system: A375 melanoma cells; assay: A375 melanoma xenograft tumor development in nude mice; assay type: in vivo; settings: 0.7 mg/mouse/day over 24 days, athymic nude mice
Method: To assess a potential antineoplastic effect of (HA15) and (SR50) in vivo, A375 melanoma cells (2.5×10^6) were injected subcutaneously in 6-week-old female athymic nude mice and treated 5 days later by injection of vehicle (labrafil) or different compounds such as PLX4032, (HA15) and (SR50) (0.7 mg/mouse/day) over a period of 24 days. Inhibitory effect is expressed as the tumor volume (mm^3) on day 8, 11, 15, 18, 22 and 24.
Athymic BALB/C nu/nu mice (Harlan) were used. The animals were 6 weeks old and weighed between 20 and 25 g. The mice were housed in the animal's C3M in a 12 h/12 h cycle. The animals received water and food ad libitum. Mice were first acclimated for one week and then injected with A375 cells (2.5 million cells in 200 μl of PBS) subcutaneously into the right and left sides. Treatment was started eight days after injection of cancer cells (when tumors were visible). The various compounds were diluted in a mixture of Labrafil (90%) (Gattefosse), Tween 80 (1%) and N,N-Dimethylacetamide (9%). Five groups of six mice treated every day intraperitoneally with 0.7 mg/day of PLX4032, SR44 (HA15), SR47 (HA32), SR50 (JG25) or with the mixture of Labrafil in control were defined. Three times a week the tumor size was measured using a caliper. […]

[3] = system: normal human fibroblasts; assay: Trypan blue cell viability, normal fibroblasts; assay type: cell-based; settings: 10 μM, FIG. 2
Method: Primary cell cultures of human normal melanocytes were prepared from human foreskin. In order to determine the effect of compound HA15 on cell viability of melanocytes and fibroblasts, 10 μM of ciglitazone or 10 μM of HA15 were added to the cell samples. The measure of cell viability was performed in the same way as for FIG. 1. Results are expressed as the percentage of living cells relatively to the number of living cells in the presence of DMSO, as for FIG. 1. Normal human fibroblasts prepared from foreskins of newborns were grown under 5% CO2 at 37° C. in DMEM medium supplemented with 10% FCS and penicillin/streptomycin (100 U/ml/[…]). Cells were seeded in 6-well plates (60000 cells/well), depleted and incubated with compounds for the times indicated. Then cells were detached in the presence of 2000 of […] (Thermo) and 2 ml of RPMI 1640 Glutamax (Gibco) was added to the cell solution. 100 of this solution was stained for 1 minute with 100 of 0.4% trypan blue before counting with a Malassez chamber. The effect of compound HA15 on cell viability of melanocytes and fibroblasts was studied, as illustrated by FIG. 2. Primary cell cultures of human normal melanocytes were prepared from human foreskin. In order to determine the effect of compound HA15 on cell viability of melanocytes and fibroblasts, 10 μM of ciglitazone or 10 μM of HA15 were added to the cell samples. […]

[4] = system: normal human melanocytes; assay: Trypan blue cell viability, normal melanocytes; assay type: cell-based; settings: 10 μM, FIG. 2
Method: Primary cell cultures of human normal melanocytes were prepared from human foreskin. In order to determine the effect of compound HA15 on cell viability of melanocytes and fibroblasts, 10 μM of ciglitazone or 10 μM of HA15 were added to the cell samples. The measure of cell viability was performed in the same way as for FIG. 1. Results are expressed as the percentage of living cells relatively to the number of living cells in the presence of DMSO, as for FIG. 1. Normal human melanocytes (NHM) prepared from foreskins of newborns were grown under 5% CO2 at 37° C. in MCDB 153 (Sigma) supplemented with 2% FCS, bovine pituitary extract (10 μg/ml), PMA (8 nM), bFGF (ing/nil), insulin (5 μg/ml), hydrocortisone (0.5 μg/ml), forskolin (10 μM), gentamicin (20 μg/ml), penicillin/streptomycin/amphotericin B (100 U/ml) (Invitrogen). Cells were seeded in 6-well plates (60000 cells/well), depleted and incubated with compounds for the times indicated. Then cells were detached in the presence of 2000 of […] (Thermo) and 2 ml of RPMI 1640 Glutamax (Gibco) was added to the cell solution. 100 of this solution was stained for 1 minute with 100 of 0.4% trypan blue before counting with a Malassez chamber. The effect of compound HA15 on cell viability of melanocytes and fibroblasts was studied, as illustrated by FIG. 2. Primary cell cultures of human normal melanocytes were prepared from human foreskin. […]

[5] = system: phosphorylation; assay: Western blot of MAP vemurafenib activation on A375 melanoma cells; assay type: cell-based; settings: FIG. 6
Method: FIG. 6: Western Blots showing the effect of compounds of the invention and dabrafenib on MAP Vemurafenib activation on A375 melanoma cells.
Proteins were extracted in Fisher buffer containing TRIS-HCl pH 7.5 50 mM, NaCl 15 mM, Triton X-100 1% and proteases and phosphatases inhibitors. Briefly, cell lysates (30 μg) were separated by SDS-PAGE, transferred onto a PVDF membrane (Millipore, Molsheim, France) and then exposed to the appropriate antibodies. Proteins were visualized with the ECL system from Amersham (Arlington, Heights, Ill., USA). The western blots shown are representative of at least 3 independent experiments.
Indeed, dabrafenib as PLX4032 inhibits activation of B-Raf on B-Raf V600E mutated melanoma. The inhibition of B-Raf leads to inhibition of MAP Vemurafenib cascade and could be visualized through inhibition of MAP vemurafenib phosphorylation.

## CC(=O)Nc1nc(-c2ccc(NS(=O)(=O)c3cccc4c(N(C)C)cccc34)cc2)cs1 [HA32, N-(4-(4-(5-(dimethylamino)naphthalene-1-sulfonamido)phenyl)thiazol-2-yl)acetamide]
[1]
  cell viability of resistant melanoma cells: inhibit cell viability of resistant melanoma cells

## CC(=O)Nc1nc(-c2cccc(NS(=O)(=O)c3ccc(C)cc3)c2)cs1 [SR50, N-(4-(3-(4-methylphenylsulfonamido)phenyl)thiazol-2-yl)acetamide]
[1]
  cell viability of resistant melanoma cells: inhibit cell viability of resistant melanoma cells
[2]
  ability of cells to develop visible tumors: markedly attenuated

## CC1(COc2ccc(CC3SC(=O)NC3=O)cc2)CCCCC1 (centres unmarked) [ciglitazone, reference compound]
[3]
  cell viability of normal fibroblasts: not affected
[4]
  cell viability of normal melanocytes: not affected

## CC(C)(C)c1nc(-c2cccc(NS(=O)(=O)c3c(F)cccc3F)c2F)c(-c2ccnc(N)n2)s1 [dabrafenib]
[1]
  cell viability of resistant melanoma cells: contrary to dabrafenib inhibit cell viability of resistant melanoma cells
[5]
  MAP vemurafenib expression: did not modulate
[5]; versus DMSO
  MAP vemurafenib phosphorylation: complete inhibition
